In ChEMBL document CHEMBL4689842, “EUbOPEN Chemogenomics Library wave 1” (2021):

System: U2OS
Experiment: Incucyte cell viability with U2OS; also: filed as whole numbers so only -1 and 0 and 1 occur
Type: toxicity, cell-based
Settings: human, 10 µM, compound concentration 10 uM
[1] = 0 h, replicate number 1, timepoint 0 hours
[2] = 0 h, replicate number 2, timepoint 0 hours
[3] = 6 h, replicate number 1, timepoint 6 hours
[4] = 6 h, replicate number 2, timepoint 6 hours
[5] = 12 h, replicate number 1, timepoint 12 hours
[6] = 18 h, replicate number 1, timepoint 18 hours
[7] = 24 h, replicate number 1, timepoint 24 hours
[8] = 12 h, replicate number 2, timepoint 12 hours

Compound	Growth Rate [1]	Growth Rate [2]	Growth Rate [3]	Growth Rate [4]	Growth Rate [5]	Growth Rate [6]	Growth Rate [7]	Growth Rate [8]	Growth Rate (24 h, replicate number 2, timepoint 24 hours)	Growth Rate (18 h, replicate number 2, timepoint 18 hours)
CN1CCN(Cc2cc(NC(=O)c3ccc4c(c3)CN(c3ccccc3)CC4)cc(C(F)(F)F)c2)CC1	1	0	0	1	0	0	0			
COc1ccccc1CN[C@H]1C2CCN(CC2)[C@H]1C(c1ccccc1)c1ccccc1 [CP-96345]	0			1	1	1	1			
CNC(=O)c1ccc(Nc2ncc(C(F)(F)F)c(NCc3nccnc3N(C)S(C)(=O)=O)n2)cc1 [DEFACTINIB]	0	1	1	0	0	0	0			
CC(C)Oc1ccccc1C(=O)Nc1ccccc1C(=O)Nc1cccc(S(=O)(=O)C(F)(F)F)c1	0					1	1			
Cc1cc(C)c(-n2ccn3nc(-c4cccnc4)cc23)cc1NC(=O)c1cc(C#N)cc(S(F)(F)(F)(F)F)c1 [BAY-826]		0	1		0	0	0			
CNC(=O)Nc1ccc2c(c1)[C@@]1(CC2)OC(=O)N(CC(=O)N(Cc2ccc(F)cc2)[C@@H](C)C(F)(F)F)C1=O [A-486]	0		0		0	0	0	1	1	
COC(=O)C1=C(C)NC(C)=C(C(=O)OCCCN2CCC(c3ccccc3)(c3ccccc3)CC2)[C@H]1c1cccc([N+](=O)[O-])c1 [NIGULDIPINE]	0			0	0	0	0			
C[C@]12CC[C@@H]3c4ccc(O)cc4CC[C@H]3[C@@H]1CC[C@@H]2O [ESTRADIOL]		0	0		0	0	0			
COc1cc2ncn(-c3cc(OCc4ccccc4C(F)(F)F)c(C(N)=O)s3)c2cc1OC [GW843682X]		0			1	0	0	0		
CC(C)NC(=O)N1CC[C@H](NC2=Nc3cc(F)ccc3N(CC(F)F)c3ccc(Cl)cc32)C1	0		0	1	0	0	0	1		1
